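How tested: cells in 96-well plates exposed to compound for 48 hours at five concentrations. At the TGI there is no net growth.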 Where a SMILES comes first, the peptide text is derived from it. [ ]: non-standard residue; d: D form. Hiv = CC(C)[C@H](O)C(=O)O
Tests used:
Test in all cases: NCI anticancer screen, dose series, 48 h
786-0 renal = system: 786-0 renal
A498 renal = system: A498 renal
A549 NSCLC = system: A549 NSCLC
ACHN renal = system: ACHN renal
CAKI-1 renal = system: CAKI-1 renal
CCRF-CEM leukemia = system: CCRF-CEM leukemia
COLO 205 colon = system: COLO 205 colon
DU-145 prostate = system: DU-145 prostate
EKVX NSCLC = system: EKVX NSCLC
HCC-2998 colon = system: HCC-2998 colon
HCT-116 colon = system: HCT-116 colon
HCT-15 colon = system: HCT-15 colon
HL-60(TB) leukemia = system: HL-60(TB) leukemia
HOP-62 NSCLC = system: HOP-62 NSCLC
HOP-92 NSCLC = system: HOP-92 NSCLC
HS 578T breast = system: HS 578T breast
HT29 colon = system: HT29 colon
IGROV1 ovarian = system: IGROV1 ovarian
KM12 colon = system: KM12 colon
LOX IMVI melanoma = system: LOX IMVI melanoma
M14 melanoma = system: M14 melanoma
MALME-3M melanoma = system: MALME-3M melanoma
MCF7 breast = system: MCF7 breast
MDA-MB-231 breast = system: MDA-MB-231 breast
MDA-MB-435 = system: MDA-MB-435
MDA-N = system: MDA-N
MOLT-4 leukemia = system: MOLT-4 leukemia
NCI-H226 lung = system: NCI-H226 lung
NCI-H23 lung = system: NCI-H23 lung
NCI-H460 lung = system: NCI-H460 lung
NCI/ADR-RES ovarian = system: NCI/ADR-RES ovarian
OVCAR-3 ovarian = system: OVCAR-3 ovarian
OVCAR-4 ovarian = system: OVCAR-4 ovarian
OVCAR-5 ovarian = system: OVCAR-5 ovarian
OVCAR-8 ovarian = system: OVCAR-8 ovarian
PC-3 prostate = system: PC-3 prostate
RXF 393 renal = system: RXF 393 renal
SF-268 CNS = system: SF-268 CNS
SF-295 CNS = system: SF-295 CNS
SF-539 CNS = system: SF-539 CNS
SK-MEL-2 melanoma = system: SK-MEL-2 melanoma
SK-MEL-28 melanoma = system: SK-MEL-28 melanoma
SK-MEL-5 melanoma = system: SK-MEL-5 melanoma
SK-OV-3 ovarian = system: SK-OV-3 ovarian
SN12C renal = system: SN12C renal
SNB-19 CNS = system: SNB-19 CNS
SR leukemia = system: SR leukemia
SW-620 colon = system: SW-620 colon
T-47D breast = system: T-47D breast
TK-10 renal = system: TK-10 renal
UACC-257 melanoma = system: UACC-257 melanoma
UACC-62 melanoma = system: UACC-62 melanoma
BT-549 breast = system: BT-549 breast
K-562 leukemia = system: K-562 leukemia
NCI-H522 lung = system: NCI-H522 lung
SNB-75 CNS = system: SNB-75 CNS
U251 CNS = system: U251 CNS
UO-31 renal = system: UO-31 renal
RPMI-8226 leukemia = system: RPMI-8226 leukemia

## CC(C)[C@@H]1OC(=O)[C@@H](C)NC(=O)[C@@H]2CCCN2C1=O (cyclo([Hiv]-Pro-[dA]))
786-0 renal
  TGI: > 100 µM
A498 renal
  TGI: > 100 µM
A549 NSCLC
  TGI: > 100 µM
ACHN renal
  TGI: > 100 µM
CAKI-1 renal
  TGI: > 100 µM
CCRF-CEM leukemia
  TGI: > 100 µM
COLO 205 colon
  TGI: > 100 µM
DU-145 prostate
  TGI: > 100 µM
EKVX NSCLC
  TGI: > 100 µM
HCC-2998 colon
  TGI: > 100 µM
HCT-116 colon
  TGI: > 100 µM
HCT-15 colon
  TGI: > 100 µM
HL-60(TB) leukemia
  TGI: > 100 µM
HOP-62 NSCLC
  TGI: > 100 µM
HOP-92 NSCLC
  TGI: > 100 µM
HS 578T breast
  TGI: > 100 µM
HT29 colon
  TGI: > 100 µM
IGROV1 ovarian
  TGI: > 100 µM
KM12 colon
  TGI: > 100 µM
LOX IMVI melanoma
  TGI: > 100 µM
M14 melanoma
  TGI: > 100 µM
MALME-3M melanoma
  TGI: > 100 µM
MCF7 breast
  TGI: > 100 µM
MDA-MB-231 breast
  TGI: > 100 µM
MDA-MB-435
  TGI: > 100 µM
MDA-N
  TGI: > 100 µM
MOLT-4 leukemia
  TGI: > 100 µM
NCI-H226 lung
  TGI: > 100 µM
NCI-H23 lung
  TGI: > 100 µM
NCI-H460 lung
  TGI: > 100 µM
NCI/ADR-RES ovarian
  TGI: > 100 µM
OVCAR-3 ovarian
  TGI: > 100 µM
OVCAR-4 ovarian
  TGI: > 100 µM
OVCAR-5 ovarian
  TGI: > 100 µM
OVCAR-8 ovarian
  TGI: > 100 µM
PC-3 prostate
  TGI: > 100 µM
RXF 393 renal
  TGI: > 100 µM
SF-268 CNS
  TGI: > 100 µM
SF-295 CNS
  TGI: > 100 µM
SF-539 CNS
  TGI: > 100 µM
SK-MEL-2 melanoma
  TGI: > 100 µM
SK-MEL-28 melanoma
  TGI: > 100 µM
SK-MEL-5 melanoma
  TGI: > 100 µM
SK-OV-3 ovarian
  TGI: > 100 µM
SN12C renal
  TGI: > 100 µM
SNB-19 CNS
  TGI: > 100 µM
SR leukemia
  TGI: > 100 µM
SW-620 colon
  TGI: > 100 µM
T-47D breast
  TGI: > 100 µM
TK-10 renal
  TGI: > 100 µM
UACC-257 melanoma
  TGI: > 100 µM
UACC-62 melanoma
  TGI: > 100 µM

## Cc1cc2cc3ccccc3cc2c(=O)[nH]1
786-0 renal
  TGI: > 10 µM
A549 NSCLC
  TGI: > 10 µM
ACHN renal
  TGI: > 10 µM
BT-549 breast
  TGI: > 10 µM
CCRF-CEM leukemia
  TGI: > 10 µM
DU-145 prostate
  TGI: > 10 µM
EKVX NSCLC
  TGI: > 10 µM
HCT-116 colon
  TGI: > 10 µM
HL-60(TB) leukemia
  TGI: > 10 µM
HOP-92 NSCLC
  TGI: > 10 µM
HS 578T breast
  TGI: > 10 µM
HT29 colon
  TGI: > 10 µM
IGROV1 ovarian
  TGI: > 10 µM
K-562 leukemia
  TGI: > 10 µM
KM12 colon
  TGI: > 10 µM
LOX IMVI melanoma
  TGI: > 10 µM
M14 melanoma
  TGI: > 10 µM
MCF7 breast
  TGI: > 10 µM
MDA-MB-435
  TGI: > 10 µM
MDA-N
  TGI: > 10 µM
MOLT-4 leukemia
  TGI: > 10 µM
NCI-H226 lung
  TGI: > 10 µM
NCI-H23 lung
  TGI: > 10 µM
NCI-H460 lung
  TGI: > 10 µM
NCI-H522 lung
  TGI: > 10 µM
OVCAR-3 ovarian
  TGI: > 10 µM
OVCAR-4 ovarian
  TGI: > 10 µM
OVCAR-5 ovarian
  TGI: > 10 µM
OVCAR-8 ovarian
  TGI: > 10 µM
PC-3 prostate
  TGI: > 10 µM
RXF 393 renal
  TGI: > 10 µM
SF-268 CNS
  TGI: > 10 µM
SF-295 CNS
  TGI: > 10 µM
SF-539 CNS
  TGI: > 10 µM
SK-OV-3 ovarian
  TGI: > 10 µM
SNB-19 CNS
  TGI: > 10 µM
SNB-75 CNS
  TGI: > 10 µM
SR leukemia
  TGI: > 10 µM
SW-620 colon
  TGI: > 10 µM
TK-10 renal
  TGI: > 10 µM
U251 CNS
  TGI: > 10 µM
UACC-257 melanoma
  TGI: > 10 µM
UACC-62 melanoma
  TGI: > 10 µM
UO-31 renal
  TGI: > 10 µM

## Cc1c(N=Nc2ccc(Cl)cc2)c(C)n(C2OC(CO)C(O)C(O)C2O)c(=S)c1C#N (configuration not stated)
786-0 renal
  TGI: 37.4 µM
A549 NSCLC
  TGI: > 100 µM
ACHN renal
  TGI: 55.5 µM
CAKI-1 renal
  TGI: > 100 µM
CCRF-CEM leukemia
  TGI: 53.5 µM
COLO 205 colon
  TGI: 40.6 µM
DU-145 prostate
  TGI: > 100 µM
EKVX NSCLC
  TGI: 93.2 µM
HCC-2998 colon
  TGI: 58.7 µM
HCT-116 colon
  TGI: 29.1 µM
HCT-15 colon
  TGI: 60.8 µM
HL-60(TB) leukemia
  TGI: 58.3 µM
HOP-62 NSCLC
  TGI: 36.8 µM
HOP-92 NSCLC
  TGI: 71.4 µM
HS 578T breast
  TGI: 83 µM
HT29 colon
  TGI: > 100 µM
IGROV1 ovarian
  TGI: 37.4 µM
K-562 leukemia
  TGI: 55.4 µM
KM12 colon
  TGI: 54.5 µM
LOX IMVI melanoma
  TGI: 33.3 µM
M14 melanoma
  TGI: 36.5 µM
MALME-3M melanoma
  TGI: 46.3 µM
MCF7 breast
  TGI: > 100 µM
MDA-MB-231 breast
  TGI: 36.1 µM
MDA-MB-435
  TGI: 42.7 µM
MDA-N
  TGI: 50.4 µM
MOLT-4 leukemia
  TGI: 42.3 µM
NCI-H226 lung
  TGI: 65.9 µM
NCI-H23 lung
  TGI: 74.3 µM
NCI-H460 lung
  TGI: 87.4 µM
NCI-H522 lung
  TGI: 49.9 µM
NCI/ADR-RES ovarian
  TGI: 47.1 µM
OVCAR-3 ovarian
  TGI: 34.2 µM
OVCAR-4 ovarian
  TGI: 50.1 µM
OVCAR-5 ovarian
  TGI: > 100 µM
OVCAR-8 ovarian
  TGI: 63.9 µM
PC-3 prostate
  TGI: 68.7 µM
RPMI-8226 leukemia
  TGI: 50.3 µM
RXF 393 renal
  TGI: 71.6 µM
SF-268 CNS
  TGI: 52.1 µM
SF-295 CNS
  TGI: 83.5 µM
SF-539 CNS
  TGI: 38 µM
SK-MEL-2 melanoma
  TGI: 33.8 µM
SK-MEL-28 melanoma
  TGI: 52.3 µM
SK-MEL-5 melanoma
  TGI: 21.8 µM
SK-OV-3 ovarian
  TGI: > 100 µM
SN12C renal
  TGI: 41.8 µM
SNB-19 CNS
  TGI: > 100 µM
SNB-75 CNS
  TGI: 68 µM
SW-620 colon
  TGI: > 100 µM
T-47D breast
  TGI: > 100 µM
TK-10 renal
  TGI: 79.5 µM
U251 CNS
  TGI: 36.4 µM
UACC-257 melanoma
  TGI: 54.1 µM
UACC-62 melanoma
  TGI: 30.5 µM
UO-31 renal
  TGI: 57.9 µM
